{
  "source": "patent US20230406885A1",
  "about": "“CYCLIC PEPTIDES FOR TRAPPING INTERLEUKIN-1 BETA” (MERCK SHARP & DOHME LLC, priority 2022, published 2023)",
  "note": "*1 amine or outer side, *2 acyl side, *3 side chain or, on linkers, in order; H or OH if unused. Where a SMILES comes first, the peptide text is derived from it. [ ]: non-standard residue; d: D form. Phe(4-(4-Ac-piperazinyl)) = CC(=O)N1CCN(c2ccc(C[C@H](N)C(=O)O)cc2)CC1; Trp(4-Cl)(βS-Me) = C[C@@H](c1c[nH]c2cccc(Cl)c12)[C@H](N)C(=O)O; Trp(βS-Me,4-F) = C[C@@H](c1c[nH]c2cccc(F)c12)[C@H](N)C(=O)O; Bip(4'-COOH) = N[C@@H](Cc1ccc(-c2ccc(C(=O)O)cc2)cc1)C(=O)O; X6 = O=C(O)C12CC(c3ccc(C[C@H](N[*:1])C(=O)[*:2])cc3)(C1)C2; X1 = CC(=O)N1CCN(c2ccc(C[C@H](N[*:1])C(=O)[*:2])cn2)CC1; 1Nal(3S-Me) = C[C@@H](c1cccc2ccccc12)[C@H](N)C(=O)O; Ala(indazol-1-yl) = N[C@@H](Cn1ncc2ccccc21)C(=O)O; Ala(indolin-1-yl) = N[C@@H](CN1CCc2ccccc21)C(=O)O; Phe(4-COOH) = N[C@@H](Cc1ccc(C(=O)O)cc1)C(=O)O; Phe(4-NH2) = Nc1ccc(C[C@H](N)C(=O)O)cc1; Pro(4R-NH2) = N[C@H]1CN[C@H](C(=O)O)C1; 1Nal = N[C@@H](Cc1cccc2ccccc12)C(=O)O; AEF = NCCOc1ccc(C[C@H](N)C(=O)O)cc1; hTyr = N[C@@H](CCc1ccc(O)cc1)C(=O)O; hCha = N[C@@H](CCC1CCCCC1)C(=O)O; hPhe = N[C@@H](CCc1ccccc1)C(=O)O; dDab = NCC[C@@H](N)C(=O)O; dNMeA = CN[C@H](C)C(=O)O; Dap = NC[C@H](N)C(=O)O",
  "data": [
    {"target": "T1, Recombinant human IL-1β (Homo sapiens, UniProt P01584)", "T1 construct": "purchased BioLegend 579404", "T1 sequence (P01584 117-269)": "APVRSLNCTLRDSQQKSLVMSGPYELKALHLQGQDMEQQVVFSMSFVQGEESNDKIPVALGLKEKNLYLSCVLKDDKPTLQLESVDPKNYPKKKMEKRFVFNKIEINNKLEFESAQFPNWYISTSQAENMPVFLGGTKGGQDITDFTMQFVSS", "experiment": "IL-6 assay in MRC5 cells: inhibition of IL-1β induced IL-6 secretion (AlphaLISA)", "type": "cell-based", "conditions": "inhibition of IL-1β induced IL-6 secretion in MRC5 cells; read-out: MRC5 IC50", "procedure,_shortened": "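IL-1β at 2×EC80 in seeding medium (EMEM, 0.025% BSA) preincubated 1 h at ambient temperature with compound, then 3000 MRC5 cells/well added and incubated overnight at 37 °C, 5% CO2. IL-6 in conditioned medium quantified by AlphaLISA; IC50 from 4-parameter logistic fit.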", "units": {"IC50": "nM"}, "values": [
      {"smiles": "CC(=O)NCCOc1ccc(C[C@@H]2NC(=O)[C@H](CCc3ccccc3)NC(=O)[C@@H](C)NC(=O)[C@H](CC(C)C)NC(=O)[C@H](Cc3c[nH]c4ccccc34)NC(=O)[C@H](Cc3ccc(-c4ccc(C(=O)O)cc4)cc3)NC(=O)CNC(=O)[C@@H](C)N(C)C(=O)[C@H](CC(=O)O)NC(=O)[C@H]([C@@H](C)c3c[nH]c4cccc(F)c34)NC(=O)[C@@H]3C[C@@H](N)CN3C(=O)CNC(=O)[C@H](Cc3ccc(C(=O)O)cc3)NC(=O)[C@H](Cc3c[nH]c4ccccc34)NC2=O)cc1", "note": "[Example 166] (cyclo([AEF](Ac)W[Phe(4-COOH)]G[Pro(4R-NH2)][Trp(βS-Me,4-F)]D[dNMeA]G[Bip(4'-COOH)]WL[dA][hPhe]))", "IC50": 0.149},
      {"smiles": "C[C@@H]1C(=O)NCC(=O)N[C@@H](Cc2ccc(-c3ccc(C(=O)O)cc3)cc2)C(=O)N[C@@H](Cn2ncc3ccccc32)C(=O)NCC(=O)N[C@H](CCN)C(=O)N[C@@H](CCC2CCCCC2)C(=O)N[C@@H](Cc2ccc(C34CC(C(=O)O)(C3)C4)cc2)C(=O)N[C@@H](Cc2c[nH]c3ccccc23)C(=O)N[C@@H](Cc2ccc(C(=O)O)cc2)C(=O)NCC(=O)N2C[C@H](N)C[C@H]2C(=O)N[C@@H]([C@@H](C)c2cccc3ccccc23)C(=O)N[C@@H](CC(=O)O)C(=O)N1C", "note": "[Example 188] (cyclo([X6]W[Phe(4-COOH)]G[Pro(4R-NH2)][1Nal(3S-Me)]D[dNMeA]G[Bip(4'-COOH)][Ala(indazol-1-yl)]G[dDab][hCha]))", "IC50": 0.016},
      {"smiles": "CC(=O)N1CCN(c2ccc(C[C@@H]3NC(=O)[C@H](CCC4CCCCC4)NC(=O)[C@@H](C)NC(=O)[C@H](CC(C)C)NC(=O)[C@H](CCCCN)NC(=O)[C@H](Cc4ccc(-c5ccc(C(=O)O)cc5)cc4)NC(=O)CNC(=O)[C@@H](C)N(C)C(=O)[C@H](CC(=O)O)NC(=O)[C@H]([C@@H](C)c4cccc5ccccc45)NC(=O)[C@@H]4C[C@@H](N)CN4C(=O)CNC(=O)[C@H](Cc4ccc(C(=O)O)cc4)NC(=O)[C@H](Cc4c[nH]c5ccccc45)NC3=O)cn2)CC1", "note": "[Example 177] (cyclo([X1]W[Phe(4-COOH)]G[Pro(4R-NH2)][1Nal(3S-Me)]D[dNMeA]G[Bip(4'-COOH)]KL[dA][hCha]))", "IC50": 0.013},
      {"smiles": "CC(=O)NCCOc1ccc(C[C@@H]2NC(=O)[C@H](Cc3ccc(N)cc3)NC(=O)[C@@H](C)NC(=O)[C@H](CO)NC(=O)[C@H](Cc3cccc4ccccc34)NC(=O)[C@H](Cc3ccc(-c4ccc(C(=O)O)cc4)cc3)NC(=O)CNC(=O)[C@@H](C)N(C)C(=O)[C@H](CC(=O)O)NC(=O)[C@H]([C@@H](C)c3c[nH]c4cccc(Cl)c34)NC(=O)[C@@H]3C[C@@H](N)CN3C(=O)CNC(=O)[C@H](Cc3ccc(C(=O)O)cc3)NC(=O)[C@H](Cc3c[nH]c4ccccc34)NC2=O)cc1", "note": "[Example 133] (cyclo([AEF](Ac)W[Phe(4-COOH)]G[Pro(4R-NH2)][Trp(4-Cl)(βS-Me)]D[dNMeA]G[Bip(4'-COOH)][1Nal]S[dA][Phe(4-NH2)]))", "IC50": 0.766},
      {"smiles": "CC(=O)N1CCN(c2ccc(C[C@@H]3NC(=O)[C@H](CCc4ccc(O)cc4)NC(=O)[C@@H](CCN)NC(=O)CNC(=O)[C@H](CN4CCc5ccccc54)NC(=O)[C@H](Cc4ccc(-c5ccc(C(=O)O)cc5)cc4)NC(=O)CNC(=O)[C@@H](C)N(C)C(=O)[C@H](CC(=O)O)NC(=O)[C@H]([C@@H](C)c4cccc5ccccc45)NC(=O)[C@@H]4C[C@@H](N)CN4C(=O)CNC(=O)[C@H](Cc4ccc(C(=O)O)cc4)NC(=O)[C@H](Cc4c[nH]c5ccccc45)NC3=O)cc2)CC1", "note": "[Example 198] (cyclo([Phe(4-(4-Ac-piperazinyl))]W[Phe(4-COOH)]G[Pro(4R-NH2)][1Nal(3S-Me)]D[dNMeA]G[Bip(4'-COOH)][Ala(indolin-1-yl)]G[dDab][hTyr]))", "IC50": 0.021},
      {"smiles": "CC(=O)NCCOc1ccc(C[C@@H]2NC(=O)[C@H](CCc3ccc(O)cc3)NC(=O)[C@@H](C)NC(=O)[C@H](CC(C)C)NC(=O)[C@H](Cc3c[nH]c4ccccc34)NC(=O)[C@H](Cc3ccc(-c4ccc(C(=O)O)cc4)cc3)NC(=O)CNC(=O)[C@@H](C)N(C)C(=O)[C@H](CC(=O)O)NC(=O)[C@H]([C@@H](C)c3cccc4ccccc34)NC(=O)[C@@H]3C[C@@H](N)CN3C(=O)CNC(=O)[C@H](Cc3ccc(C(=O)O)cc3)NC(=O)[C@H](Cc3c[nH]c4ccccc34)NC2=O)cc1", "note": "[Example 125] (cyclo([AEF](Ac)W[Phe(4-COOH)]G[Pro(4R-NH2)][1Nal(3S-Me)]D[dNMeA]G[Bip(4'-COOH)]WL[dA][hTyr]))", "IC50": 0.064},
      {"smiles": "CC(=O)NCCOc1ccc(C[C@@H]2NC(=O)[C@H](CCc3ccc(O)cc3)NC(=O)[C@@H](C)NC(=O)[C@H](CN)NC(=O)[C@H](Cc3c[nH]c4ccccc34)NC(=O)[C@H](Cc3ccc(-c4ccc(C(=O)O)cc4)cc3)NC(=O)CNC(=O)[C@@H](C)N(C)C(=O)[C@H](CC(N)=O)NC(=O)[C@H]([C@@H](C)c3cccc4ccccc34)NC(=O)[C@@H]3C[C@@H](N)CN3C(=O)CNC(=O)[C@H](Cc3ccc(C(=O)O)cc3)NC(=O)[C@H](Cc3c[nH]c4ccccc34)NC2=O)cc1", "note": "[Example 129] (cyclo([AEF](Ac)W[Phe(4-COOH)]G[Pro(4R-NH2)][1Nal(3S-Me)]N[dNMeA]G[Bip(4'-COOH)]W[Dap][dA][hTyr]))", "IC50": 0.0828}
    ]}
  ]
}
